From US12331026B2 (NiKang Therapeutics, Inc., priority 2022, dated 2025)

molecular target: T1, CDK2 (Homo sapiens, UniProt P24941); test: Phospho-RB measurement in OVCAR3 cells (HTRF phospho-RB S807/811); assay type: cell-based; conditions: phosphorylation of RB protein at S807/811, HTRF, 24 h compound treatment, 0.3 to 10,000 nM, read-out: pRb (uM)
T1 construct: endogenous in cells; host or cells: OVCAR3 cells
Method in brief: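 IC50 values come from four-parameter logistic fits of the DMSO-normalised 665/620 nm TR-FRET ratio for phospho-RB (S807/811). Antibody detection ran 4 h at room temperature.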

Row | Compound | IC50 [µM]
1 | CC1(C)CCN1c1nc(-c2cccc(NS(=O)(=O)c3c(F)cccc3F)c2F)c(-c2ccnc(NC3CC4(C3)CS(=O)(=O)C4)n2)s1 [Example 29, N-(3-(2-(2,2-dimethylazetidin-1-yl)-5-(2-((2,2-dioxido-2-thiaspiro[3.3]heptan-6-yl)amino)pyrimidin-4-yl)thiazol-4-yl)-2-fluorophenyl)-2,6-difluorobenzenesulfonamide] | 0.27
2 | O=S1(=O)CC2(CC(Nc3nccc(-c4sc(N5C6CCC5CN(Cc5ccccc5)C6)nc4-c4cccc(NS(=O)(=O)c5c(F)cccc5F)c4F)n3)C2)C1 [Example 40, N-(3-(2-(3-benzyl-3,8-diazabicyclo[3.2.1]octan-8-yl)-5-(2-((2,2-dioxido-2-thiaspiro[3.3]heptan-6-yl)amino)pyrimidin-4-yl)thiazol-4-yl)-2-fluorophenyl)-2,6-difluorobenzenesulfonamide] | 1.7
3 | O=S1(=O)CC2(CC(Nc3nccc(-c4sc(N5C6CCC5CNC6)nc4-c4cccc(NS(=O)(=O)c5c(F)cccc5F)c4F)n3)C2)C1 [Example 141, N-(3-(2-(3,8-diazabicyclo[3.2.1]octan-8-yl)-5-(2-((2,2-dioxido-2-thiaspiro[3.3]heptan-6-yl)amino)pyrimidin-4-yl)thiazol-4-yl)-2-fluorophenyl)-2,6-difluorobenzenesulfonamide] | 6.7
4 | CC(C)(C)OC(=O)N1CCC(C)(c2nc(-c3cccc(NS(=O)(=O)c4c(F)cccc4F)c3F)c(-c3ccnc(NC4CC5(C4)CS(=O)(=O)C5)n3)s2)CC1 [Example 13, tert-butyl 4-(4-(3-((2,6-difluorophenyl)sulfonamido)-2-fluorophenyl)-5-(2-((2,2-dioxido-2-thiaspiro[3.3]heptan-6-yl)amino)pyrimidin-4-yl)thiazol-2-yl)-4-methylpiperidine-1-carboxylate] | 0.73
5 | O=S1(=O)CC2(CC(Nc3nccc(-c4sc(C5(C(F)(F)F)CC5)nc4-c4cccc(NS(=O)(=O)c5c(F)cccc5F)c4F)n3)C2)C1 [Example 89, N-(3-(5-(2-((2,2-dioxido-2-thiaspiro[3.3]heptan-6-yl)amino)-pyrimidin-4-yl)-2-(1-(trifluoromethyl)cyclopropyl)thiazol-4-yl)-2-fluorophenyl)-2,6-difluorobenzenesulfonamide] | 0.12
6 | O=S1(=O)CC2(CC(Nc3nccc(-c4sc(N5C6CCC5CC(F)(F)C6)nc4-c4cccc(NS(=O)(=O)c5c(F)cccc5F)c4F)n3)C2)C1 [Example 12, N-(3-(2-(3,3-difluoro-8-azabicyclo[3.2.1]octan-8-yl)-5-(2-((2,2-dioxido-2-thiaspiro[3.3]heptan-6-yl)amino)pyrimidin-4-yl)thiazol-4-yl)-2-fluorophenyl)-2,6-difluorobenzenesulfonamide] | 0.068
7 | O=S1(=O)C[C@@H]2[C@H](C1)[C@H]2Nc1nccc(-c2sc(C34CC(C3)C4)nc2-c2cccc(NS(=O)(=O)c3c(OC(F)F)cccc3C(F)(F)F)c2F)n1 [Example 125, N-(3-(2-(bicyclo[1.1.1]pentan-1-yl)-5-(2-(((1R,5S,6r)-3,3-dioxido-3-thiabicyclo[3.1.0]hexan-6-yl)amino)pyrimidin-4-yl)thiazol-4-yl)-2-fluorophenyl)-2-(difluoromethoxy)-6-(trifluoromethyl)-benzenesulfonamide] | 4.51
8 | CN1C2CCC1CN(c1nc(-c3cccc(NS(=O)(=O)c4c(F)cccc4F)c3F)c(-c3ccnc(NC4CC5(C4)CS(=O)(=O)C5)n3)s1)C2 [Example 23, N-(3-(5-(2-((2,2-dioxido-2-thiaspiro[3.3]heptan-6-yl)amino)pyrimidin-4-yl)-2-(8-methyl-3,8-diazabicyclo[3.2.1]octan-3-yl)thiazol-4-yl)-2-fluorophenyl)-2,6-difluorobenzenesulfonamide] | 1.74
9 | CN1CC2CCC(C1)N2c1nc(-c2cccc(NS(=O)(=O)c3c(F)cccc3OC(F)F)c2F)c(-c2ccnc(NC3CC4(C3)CS(=O)(=O)C4)n2)s1 [Example 66, 2-(difluoromethoxy)-N-(3-(5-(2-((2,2-dioxido-2-thiaspiro[3.3]-heptan-6-yl)amino)pyrimidin-4-yl)-2-(3-methyl-3,8-diazabicyclo[3.2.1]octan-8-yl)thiazol-4-yl)-2-fluorophenyl)-6-fluorobenzenesulfonamide] | 0.15
10 | O=S1(=O)C[C@@H]2[C@H](C1)[C@H]2Nc1nccc(-c2sc(C34CCC(CC3)C4)nc2-c2cccc(NS(=O)(=O)c3c(F)cccc3F)c2F)n1 [Example 99, N-(3-(2-(bicyclo[2.2.1]heptan-1-yl)-5-(2-(((1R,5S,6r)-3,3-dioxido-3-thiabicyclo[3.1.0]hexan-6-yl)amino)pyrimidin-4-yl)thiazol-4-yl)-2-fluorophenyl)-2,6-difluorobenzenesulfonamide] | 0.06
11 | CC1(C#N)CC2CCC(C1)N2c1nc(-c2cccc(NS(=O)(=O)c3c(F)cccc3C(F)(F)F)c2F)c(-c2ccnc(NC3CC4(C3)CS(=O)(=O)C4)n2)s1 (stereo not drawn) [Example 151, N-(3-(2-(3-cyano-3-methyl-8-azabicyclo[3.2.1]octan-8-yl)-5-(2-((2,2-dioxido-2-thiaspiro[3.3]heptan-6-yl)amino)pyrimidin-4-yl)thiazol-4-yl)-2-fluorophenyl)-2-fluoro-6-(trifluoromethyl)benzenesulfonamide] | 0.051
12 | O=S1(=O)CC2(CC(Nc3nccc(-c4sc(C56CCC(CC5)CC6)nc4-c4cccc(NS(=O)(=O)c5c(F)cccc5F)c4F)n3)C2)C1 [Example 10, N-(3-(2-(bicyclo[2.2.2]octan-1-yl)-5-(2-((2,2-dioxido-2-thiaspiro[3.3]heptan-6-yl)amino)pyrimidin-4-yl)thiazol-4-yl)-2-fluorophenyl)-2,6-difluorobenzenesulfonamide] | 0.055
13 | CN(C)C1CC2CCC(C1)N2c1nc(-c2cccc(NS(=O)(=O)c3c(F)cccc3F)c2F)c(-c2ccnc(NC3CC4(C3)CS(=O)(=O)C4)n2)s1 (stereo not drawn) [Example 25, N-(3-(2-(3-(dimethylamino)-8-azabicyclo[3.2.1]octan-8-yl)-5-(2-((2,2-dioxido-2-thiaspiro[3.3]heptan-6-yl)amino)pyrimidin-4-yl)thiazol-4-yl)-2-fluorophenyl)-2,6-difluorobenzenesulfonamide] | 1.55
14 | CS(=O)(=O)C1CCC(Nc2nccc(-c3sc(C45CC(C(F)(F)F)(C4)C5)nc3-c3cccc(NS(=O)(=O)c4c(Cl)cccc4C(F)(F)F)c3F)n2)CC1 (stereo not drawn) [Example 118, 2-chloro-N-(2-fluoro-3-(5-(2-(((1s,4s)-4-(methylsulfonyl)-cyclohexyl)amino)pyrimidin-4-yl)-2-(3-(trifluoromethyl)bicyclo-[1.1.1]pentan-1-yl)thiazol-4-yl)phenyl)-6-(trifluoromethyl)-benzenesulfonamide] | 0.73
15 | O=S1(=O)C[C@@H]2[C@H](C1)[C@H]2Nc1nccc(-c2sc(C3(C(F)F)CC3)nc2-c2cccc(NS(=O)(=O)c3c(F)cccc3C(F)(F)F)c2F)n1 [Example 128, N-(3-(2-(1-(difluoromethyl)cyclopropyl)-5-(2-(((1R,5S,6r)-3,3-dioxido-3-thiabicyclo[3.1.0]hexan-6-yl)amino)pyrimidin-4-yl)thiazol-4-yl)-2-fluorophenyl)-2-fluoro-6-(trifluoromethyl)-benzenesulfonamide] | 0.05
16 | CS(=O)(=O)[C@H]1CC[C@@H](Nc2nccc(-c3sc(C45CC(C4)C5)nc3-c3cccc(NS(=O)(=O)c4c(F)cccc4C(F)(F)F)c3F)n2)CC1 [Example 132, N-(3-(2-(bicyclo[1.1.1]pentan-1-yl)-5-(2-(((1s,4s)-4-(methylsulfonyl)cyclohexyl)amino)pyrimidin-4-yl)thiazol-4-yl)-2-fluorophenyl)-2-fluoro-6-(trifluoromethyl)benzenesulfonamide] | 0.05
17 | C[C@H]1COC[C@H](C)N1c1nc(-c2cccc(NS(=O)(=O)c3c(F)cccc3C(F)(F)F)c2F)c(-c2ccnc(NC3CC4(C3)CS(=O)(=O)C4)n2)s1 [Example 79, N-(3-(2-((3S,5S)-3,5-dimethylmorpholino)-5-(2-((2,2-dioxido-2-thiaspiro[3.3]heptan-6-yl)amino)pyrimidin-4-yl)thiazol-4-yl)-2-fluorophenyl)-2-fluoro-6-(trifluoromethyl)benzenesulfonamide] | 0.06
18 | CC1(C)CCN1c1nc(-c2cccc(NS(=O)(=O)c3c(F)cccc3C(F)(F)F)c2F)c(-c2ccnc(N[C@H]3[C@@H]4CS(=O)(=O)C[C@@H]43)n2)s1 [Example 121, N-(3-(2-(2,2-dimethylazetidin-1-yl)-5-(2-(((1R,5S,6r)-3,3-dioxido-3-thiabicyclo[3.1.0]hexan-6-yl)amino)pyrimidin-4-yl)thiazol-4-yl)-2-fluorophenyl)-2-fluoro-6-(trifluoromethyl)benzenesulfonamide] | 0.05
19 | CC1C2(CC(Nc3nccc(-c4sc(C56CC(C5)C6)nc4-c4cccc(NS(=O)(=O)c5c(F)cccc5F)c4F)n3)C2)CS1(=O)=O (stereo not drawn) [Example 153, N-(3-(2-(bicyclo[1.1.1]pentan-1-yl)-5-(2-((1-methyl-2,2-dioxido-2-thiaspiro[3.3]heptan-6-yl)amino)pyrimidin-4-yl)thiazol-4-yl)-2-fluorophenyl)-2,6-difluorobenzenesulfonamide] | 0.06
20 | O=S1(=O)C[C@@H]2[C@H](C1)[C@@H]2Nc1nccc(-c2sc(C34CCC(CC3)C4)nc2-c2cccc(NS(=O)(=O)c3c(F)cccc3F)c2F)n1 [Example 73, N-(3-(2-(bicyclo[2.2.1]heptan-1-yl)-5-(2-(((1R,5S,6s)-3,3-dioxido-3-thiabicyclo[3.1.0]hexan-6-yl)amino)pyrimidin-4-yl)thiazol-4-yl)-2-fluorophenyl)-2,6-difluorobenzenesulfonamide] | 0.6
21 | O=S1(=O)CC2(CC(Nc3nccc(-c4sc(C5(C(F)F)CC5)nc4-c4cccc(NS(=O)(=O)c5c(F)cccc5OC(F)F)c4F)n3)C2)C1 [Example 81] | 0.14
